The target in one data set is CYP2D6 (Homo sapiens, UniProt P10635). Nature of the data set: CYP2D6 luminescent assay (Glo kit). The protocol:
The inhibitory potential of the compound against the CYP2D6 isoform was evaluated employing a methodology analogous to the CYP3A4 assay, albeit with a different set of reference compounds.
The effect of SERAAK2 on the activity of the cytochrome P450 isoforms CYP3A4 and CYP2D6 was tested using commercial luminescence assays (Glo kits bought from Promega, Medison, WI, USA). The experiment was performed twice with triplicate samples, following the manufacturer’s guidelines and established procedures.

The test system of a further data set is SH-SY5Y cells. Nature of the data set: MTS cytotoxicity assay in SH-SY5Y cells. Format: cell-based, human. Particulars: 72 h. The protocol: The cytotoxic potential of SERAAK2 was evaluated in two human-derived cell lines chosen for their physiological relevance: HepG2 (hepatocellular carcinoma) and SH-SY5Y (neuroblastoma). […] It is particularly noteworthy that the use of the SERAAK2 compound at a concentration of 30 µM reduces the number of viable cells below the level of the positive control (doxorubicin) at the same concentration (Table 3). […] Under the experimental conditions used, after 72 h of incubation, a fraction of doxorubicin-treated cells remains metabolically active and generates a low signal in the MTS assay. The enhanced signal reduction observed in the MTS assay for the tested compound, compared to doxorubicin, indicates strong cytotoxic activity leading to necrosis of the entire cell population.
An assessment of the cytotoxic potential of SERAAK2 was carried out utilizing the colorimetric MTS assay. This investigation was executed on both HepG2 and SH-SY5Y cell lines, adhering to an identical procedure. The cell lines, sourced from the American Type Culture Collection (Manassas, VA, USA), were cultured under standard conditions (5% CO2, 37 °C) in DMEM/F12 medium (#31330-038, ThermoFisher Scientific, Waltham, MA, USA). The medium was supplemented with 10% Fetal Bovine Serum (FBS, #A5256801, ThermoFisher Scientific) and a Penicillin–Streptomycin solution (#15140-122, ThermoFisher Scientific) until their use in the study. Cells within passage numbers 15 to 25 were plated in 96-well plates at a density of 5000 cells per well in 200 μL of medium and allowed to adhere during a 24 h incubation at 37 °C with 5% CO2. […] The plates were then subsequently returned to the 37 °C incubator, after which absorbance was recorded with a Spark microplate reader; this measurement occurred after 1 h for the HepG2 line and 3 h for the SH-SY5Y line. The ultimate cell viability percentage was determined by comparing results to the control wells, which represented 100% viability, and the wells treated with 10 μM doxorubicin, which were defined as 0% viability. […]
(Formazan colour is commonly taken as a measure of viable cells.)

Data set [1] in a line: PAMPA membrane permeability. Type of data set: in vitro ADME. To be noted: 100 µM in PBS pH 7.4, 5 h. The protocol: In this study, PAMPA was employed to evaluate the passive diffusion of SERAAK2 through a lipid-infused artificial membrane.
The membrane permeability assay was conducted employing the pre-coated PAMPA Plate System Gentest from Corning (Tewksbury, MA, USA), following the manufacturer’s provided instructions. SERAAK2, along with reference compounds, were prepared in PBS buffer at a pH of 7.4 to reach a final concentration of 100 µM, and these solutions were loaded onto the donor plate of the 96-well system. […] The permeability coefficient (Pe, expressed in cm/s) was subsequently derived by applying the calculation formula supplied by the manufacturer of the PAMPA system.

Data set [2] has as its system mice. The experiment in a line: Spontaneous locomotor activity. Type of data set: in vivo. Particulars: 60 min before test. On the procedure:
(§1) The investigated compound (SER2AAK2) was bought from Enamine (purity over 95%) and in all tests was administered intraperitoneally (i.p.), spread in a drop of Tween 80, and diluted with an aqueous solution of 0.5% methylcellulose (tylose) and injected 60 min before the tests in a volume of 10 mL/kg. Control groups received tylose injections of the same volume and via the same route of administration.
(§2) Locomotor activity of the mice was assessed using the Opto-Varimex-4 Auto-Track system (Columbus Instruments, OH, USA). Each mouse was placed individually in a testing cage for 25 min—5 min for acclimatization, followed by 20 min of activity recording. (6a) The total distance traveled (in centimeters) was measured. Cages were cleaned with 10% ethanol between sessions.

The subject of data set [3] is mice. The experiment in a line: Motor coordination, chimney test. To be noted: 7.5 mg/kg i.p., 60 min before test, similar to control. Format: in vivo. On the procedure:
as §1
The effects of the SER2AAK2 compound were also measured in the rotarod and chimney tests. In the rotarod test, mice were evaluated for their ability to maintain balance on a constantly rotating rod (18 rpm) for 1 min. The chimney test involved placing a mouse in a horizontal polymer tube (3 cm diameter, 25 cm length). Once the mouse reached the far end, the tube was positioned vertically, requiring the animal to climb backwards to exit. Right motor coordination was defined as exiting the chimney within 60 s. Prior to testing, mice underwent a 3-day training. Only those animals that were able to stay on the rotating rod or leave the chimney within the required time were included in the study.

The test system of data set [4] is mice. Nature of the data set: Forced swim test (FST). Type of data set: in vivo. To be noted: 7.5 mg/kg i.p., 60 min before test. The protocol: as §1
The study was carried out using the test proposed by R. Porsolt. The method is based on the observation of an animal forced to swim in a confined space from which there is no escape. After an initial period of vigorous attempts to get out, the animal finally gives up on escaping. The test consists of immersing the mouse individually in a cylindrical beaker (diameter 10 cm, height 25 cm) filled with water (at a temperature of 23–25 °C) at a height of 10 cm for 6 min. The immobility time was measured during the final 4 min of the test (between 2 and 6 min).

Data set [5] deals with mice. The experiment in a line: Amphetamine-induced hyperactivity. Type of data set: in vivo. To be noted: 7.5 mg/kg i.p. 60 min before test, amphetamine 3 mg/kg 30 min later. On the procedure: as §1, §2
In another data set the target is 5-HT1A receptor. Details: method as in PMID 38619283. Particulars: cited from earlier work.
Another data set concerns the target 5-HT7 receptor. Details: method as in PMID 38619283. To be noted: cited from earlier work.
The next data set has as its system dopamine D2 receptor. Also noted: method as in PMID 38619283. Particulars: cited from earlier work.

Entries after “also recorded” stand apart in the source; their conditions may differ.

Chain of CYP2D6 (P10635 whole entry, canonical isoform): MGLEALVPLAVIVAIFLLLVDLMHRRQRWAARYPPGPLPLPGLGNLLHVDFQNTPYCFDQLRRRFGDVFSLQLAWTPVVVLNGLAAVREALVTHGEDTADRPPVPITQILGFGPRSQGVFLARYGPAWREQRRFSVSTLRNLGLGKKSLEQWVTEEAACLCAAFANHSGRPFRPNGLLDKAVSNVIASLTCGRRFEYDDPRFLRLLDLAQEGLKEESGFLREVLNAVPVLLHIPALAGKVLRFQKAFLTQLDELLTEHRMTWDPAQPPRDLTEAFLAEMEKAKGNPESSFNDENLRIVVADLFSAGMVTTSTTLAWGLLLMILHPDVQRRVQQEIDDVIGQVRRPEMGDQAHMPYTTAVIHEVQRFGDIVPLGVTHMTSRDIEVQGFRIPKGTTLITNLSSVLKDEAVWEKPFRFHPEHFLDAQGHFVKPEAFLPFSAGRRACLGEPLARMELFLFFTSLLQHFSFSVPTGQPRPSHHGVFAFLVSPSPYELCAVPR

One may read the IC50 as the concentration needed to halve the response being measured. Higher therefore signals weaker potency. In general, inhibition refers to the change of the read-out against control, counted positive when it falls. A lower inhibition goes with a weak effect. Usually Ki stands for the dissociation constant of the complex between target and ligand, obtained from inhibition or displacement. The compound `OC(CNCCc1c[nH]c2ccccc12)COc1ccc(Oc2ccccc2)cc1` (centres unmarked) [SERAAK2] gave a concentration for half-maximal inhibition (IC50) against CYP2D6 of 1000 nM. At CYP2D6 (human), 10 µM produced 90 ± 1% inhibition. Also, in the data set on SH-SY5Y cells (0.3 µM), the “cytotoxic effects in SH-SY5Y cells” value is on record as “no cytotoxic effects”. Besides, in the data set on SH-SY5Y cells (30 µM), the “Percentage Reduction in the Number of Viable SH-SY5Y Cells [Mean ± SEM]” value was found to be 108 ± 1%. The “Pe ± SD” value in data set [1] worked out at 1.1 ×10⁻⁶ cm/s. Moreover, the Papp at 5 h, 100 µM in data set [1] (read-out: Pe ± SD) worked out at 1.1 ± 0.35 ×10⁻⁶ cm/s. In addition, the Spontaneous locomotor activity result is “inactive; also recorded: no effect” in the data set with mice [2] (mice, 7.5 mg/kg i.p., 7.5 mg/kg); “statistically significant reduction in locomotor activity; also recorded: reduced activity” in the data set with mice [2] (mice, 60, 30 and 15 mg/kg i.p., 20 min recording). The “time to leave the chimney” value in the data set on mice [3] is “about 13 s”. Also, the FST immobility time entry in the data set on mice [4] is on record as “significant decrease in immobility time; also recorded: ↓ immobility (7.5 mg/kg) antidepressant-like effect connected with serotonergic modulation”. The amphetamine-induced hyperactivity entry with mice [5] is given as “did not significantly modify this hyperactivity; also recorded: no effect”. Moreover, the Ki is 153 ± 0.4 nM at 5-HT1A receptor and 914 ± 25 nM at 5-HT7 receptor. In the data set on dopamine D2 receptor, the “percent of inhibition at 10 μM, dopamine D2 receptor” value is on record as 23 ± 6%.

The record behind these values is publication PMC12693327, “SERAAK2 as a Serotonin Receptor Ligand: Structural and Pharmacological In Vitro and In Vivo Evaluation” (Molecules, 2025).
